# Experimental data taken from patent publication US20100130598A1, “METHODS FOR INDUCING PROGRAMMED CELL DEATH” (Novogen Research Pty Ltd., priority 2008, published 2010).
# Columns and labels:
# Type in all cases: cell-based, human
# pancreatic cancer cells = assay: Simultaneous caspase activation, apoptosis and necrosis (Annexin-V-Cy5/sytox blue) by flow cytometry; conditions: Compound 10-treated, 10 μM, 48 hrs
# Experimental: Cells. Human pancreatic cell lines HPAC, MIAPaCa-2 and PANC-1 were obtained from the ATCC. (Manassas, Va.). The cells were maintained in DMEM media with Gln and high glucose (Mediatech, Manassas, Va.) with 10% fetal bovine serum (FBS, HyClone, Logan, Utah) and pencillin/streptomycin.
# Caspase Activity After 48 h treatment with 10 μM Compound 10, HPAC, MIAPaCa-2 and PANC-1 cells were harvested by trypsinization and resuspended in DMEM media with 10% FBS. The cells were incubated with caspase substrates for 1 h at 37° C., 5% CO2, then probed with Annexin-V-Cy5 and sytox blue. Caspase +ve cells were gated as shown in the histograms and these cells are indicated on the Annexin-V-Cy5/sytox blue spectra as blue cells. In situ caspase activity was assayed using fluorescent substrates. For Caspase 2, FITC-VDVAD-fmk (Biovision K182-100), for Caspase 3, FITC-DEVD-fmk (K183-100) and for Caspase 9, FITC-LEHD-fmk (K199-100) was used. These substrates bind irreversibly to their respective activated caspases, and caspase activation was quantitated by flow cytometry. After 1 hr incubation at 37° C. in 5% CO2, the cells were washed with DPBS containing 5% FBS and resuspended in Annexin-V binding buffer containing Annexin-V-Cy5 (Biovision K103-3) and sytox blue (Invitrogen), a dye that binds necrotic cells. Caspase activation, apoptosis and necrosis were measured simultaneously using a violet, blue and red laser in a BD LSRII flow cytometer.
# EOC cells = assay: Cell viability assay (CellTiter 96 AQueous One)
# Source text: Cell lines and culture conditions. Established human EOC cell lines, A2780 and A2780/CP70 (gifts from Dr. T C Hamilton) (Behrens et al, 1997) were propagated in RPMI plus 10% fetal bovine serum (Gemini Bio-Products, Woodland, Calif.). Primary EOC cell lines were isolated from malignant ovarian ascites or explanted from ovarian tumors and cultured as previously described (Alvero et al, 2006). Purity of the EOC cells was 100% as determined by immuno-staining for cytokeratin 7 antigen. All cell lines were grown at 37° C. in a 5% CO2 atmosphere.
# Cell viability assay. Cell viability was determined as previously reported (Alvero et al., 2006). Briefly, cells (5×10^3) were plated in triplicate wells in a […] volume per well of a 96-well microtiter plate (BD Biosciences/Pharmingen, San Diego, Calif.). The cells were grown to 70% confluence and then incubated in reduced-serum phenol-depleted Opti-MEM medium (Invitrogen-GIBCO, Carlsbad, Calif.) for 4 h prior to treatment. Compound 1 (Novogen, Inc., NSW, Australia) was added to the medium from 10 mg/ml stock to give various final concentrations as described in the results section. Following 24 h treatment, cell viability was evaluated using the CellTiter 96® AQueous One Solution Cell Proliferation Assay (Promega Corporation, Madison, Wis.) according to the manufacturer's instructions. Optical densities of the samples were measured at 490 nm using an automatic microplate reader (Model 550, Bio-Rad, Hurcules, Calif.). The values from the treated cells were compared with the values generated from the untreated control and reported as percent viability. Each experiment was done in triplicate.
# For experiments using the caspase inhibitor, Z-VAD-FMK (Sigma Aldrich, St. Louis, Mo.), the inhibitor was added to the cultures 30 mins prior to treatment to yield a final concentration of 20 μM. […]
# LC3-II = assay: Western blot of EOC whole cell lysates for LC3-II; conditions: EOC cells, 10 g/ml (as printed, FIG. 3 legend)
# Source text: Protein preparation and cellular fractionation. After drug treatment, protein was extracted and measured as previously described (Alvero et al, 2006). For separation of the cytoplasmic and mitochondrial fractions, cell pellets were processed using the ApoAlert™ Cell Fractionation Kit (BD Biosciences, San Jose, Calif.) according to the manufacturer's instructions. For separation of the cytoplasmic and nuclear fractions, pellets were processed using NE-PER Nuclear and Cytoplasmic Extraction (Pierce Biotechnology, Inc., Rockford, Ill.).
# SDS-PAGE and Western blots. Cell lysates (20 μg protein) were denatured in sample buffer (2.5% SDS, 10% glycerol, 5% β-mercapto-ethanol, 0.15 M Tris (pH=6.8) and 0.01% bromophenol blue) and subjected to 12% SDS-PAGE as previously described (Kamsteeg et al, 2003). […]
Structure (SMILES),caspase positive cells that bound both Annexin-V-Cy5 and sytox blue (later stages of apoptosis) (pancreatic cancer cells),caspase positive cells that were Annexin-V positive and sytox blue negative (early stages of apoptosis) (pancreatic cancer cells),caspase positive cells that were sytox blue positive and Annexin-V negative (necrosis) (pancreatic cancer cells),"effect of autophagy inhibitor 3-MA on compound-induced cell death (EOC cells; Compound 1 10 μg/ml, 3 MA (10 μM))","GI50 (EOC cells; Homo sapiens, primary EOC cultures, paclitaxel-sensitive and paclitaxel-resistant (R182, R456), 24 h, read-out: GI50 (reduction in percentage of viable cells))","impact of pan-caspase inhibitor Z-VAD-FMK on compound-induced cell death (EOC cells; Z-VAD-FMK 20 μM, increasing concentrations of Compound 1, 24 h)",levels of LC3-II (LC3-II)
"COc1ccc(C2c3ccc(O)cc3OCC2c2ccc(O)cc2)cc1 (stereo not shown) [Compound 10, 3-(4-hydroxyphenyl)-4-(4-methoxyphenyl)chroman-7-ol]",Approximately 30%,Approximately 60%,Less than 5%,–,–,–,–
"COc1ccc(C2c3ccc(O)c(C)c3OCC2c2ccc(O)cc2)cc1 (stereo not shown) [Compound 1, 3-(4-hydroxyphenyl)-4-(4-methoxyphenyl)-8-methylchroman-7-ol]",–,–,–,not able to inhibit,5 to 10 mg/L,no impact,significant increase
